Among the data in patent US20130209543A1, “ENHANCED TREATMENT REGIMENS USING MTOR INHIBITORS” (Intellikine LLC, priority 2011, published 2013) are IC50 and EC50 values, retold here.

The target of test [1] is PI3K β (Homo sapiens, UniProt P42338). Kind of test: PI3K β kinase assay. The test is classed as biochemical.
Test [2] deals with T1, mTOR (Homo sapiens, UniProt P42345).
T1 construct: purchased Invitrogen
The test is described as follows: mTOR kinase inhibition assay. The test is classed as biochemical.
Procedure: The compounds described herein and any other mTorC1/mTorC2 inhibitors known in the art can be tested against recombinant mTOR (Invitrogen) in an assay containing 50 mM HEPES, pH 7.5, 1 mM EGTA, 10 mM MgCl2, 2.5 mM, 0.01% Tween, 10 μM ATP (2.5 μCi of μ-32P-ATP), and 3 mg/mL BSA. Rat recombinant PHAS-1/4EBP1 (Calbiochem; 2 mg/mL) is used as a substrate. Reactions are terminated by spotting onto nitrocellulose, which is washed with 1M NaCl/1% phosphoric acid (approximately 6 times, 5-10 minutes each). Sheets are dried and the transferred radioactivity quantitated by phosphorimaging.
For instance, one can use Invitrogen's LanthaScreen™ Kinase assay to test the inhibitors of mTOR disclosed herein. This assay is a time resolved FRET platform that measures the phosphorylation of GFP labeled 4EBP1 by mTOR kinase. The kinase reaction is performed in a white 384 well microtitre plate. The total reaction volume is 20 μl per well and the reaction buffer composition is 50 mM HEPES pH7.5, 0.01% Polysorbate 20, 1 mM EGTA, 10 mM MnCl2, and 2 mM DTT. In the first step, each well receives 2 ul of test compound in 20% dimethylsulphoxide resulting in a 2% DMSO final concentration. Next, 8ul of mTOR diluted in reaction buffer is added per well for a 60 ng/ml final concentration. To start the reaction, 10 ul of an ATP/GFP-4EBP1 mixture (diluted in reaction buffer) is added per well for a final concentration of 10 μM ATP and 0.5 μM GFP-4EBP1. The plate is sealed and incubated for 1 hour at room temperature. […] The plate is sealed, incubated for 1 hour at room temperature, and then read on a plate reader set up for LanthaScreen™ TR-FRET. Data is analyzed and IC50s are generated using GraphPad Prism 5.

Test [3] addresses PI3K α (Homo sapiens, UniProt P42336). The test is described as follows: PI3K α kinase assay. The class given is biochemical.
The target in test [4] is PI3K δ (Homo sapiens, UniProt O00329). Kind of test: PI3K δ kinase assay. The class given is biochemical.
For test [5], the target named is PI3K γ (Homo sapiens, UniProt P48736). Kind of test: PI3K γ kinase assay. The test is classed as biochemical.
In test [6] the test system is PC3. Kind of test: PC3 proliferation. The class given is cell-based. The settings on record: Homo sapiens, PC-3; for pIC50: Table 2; for pEC50: Table 1.

pEC50, pIC50: −log10 of the molar value. Where two headings read alike, the source gives them in different places.

Chain of PI3K γ (P48736 whole entry, species assumed): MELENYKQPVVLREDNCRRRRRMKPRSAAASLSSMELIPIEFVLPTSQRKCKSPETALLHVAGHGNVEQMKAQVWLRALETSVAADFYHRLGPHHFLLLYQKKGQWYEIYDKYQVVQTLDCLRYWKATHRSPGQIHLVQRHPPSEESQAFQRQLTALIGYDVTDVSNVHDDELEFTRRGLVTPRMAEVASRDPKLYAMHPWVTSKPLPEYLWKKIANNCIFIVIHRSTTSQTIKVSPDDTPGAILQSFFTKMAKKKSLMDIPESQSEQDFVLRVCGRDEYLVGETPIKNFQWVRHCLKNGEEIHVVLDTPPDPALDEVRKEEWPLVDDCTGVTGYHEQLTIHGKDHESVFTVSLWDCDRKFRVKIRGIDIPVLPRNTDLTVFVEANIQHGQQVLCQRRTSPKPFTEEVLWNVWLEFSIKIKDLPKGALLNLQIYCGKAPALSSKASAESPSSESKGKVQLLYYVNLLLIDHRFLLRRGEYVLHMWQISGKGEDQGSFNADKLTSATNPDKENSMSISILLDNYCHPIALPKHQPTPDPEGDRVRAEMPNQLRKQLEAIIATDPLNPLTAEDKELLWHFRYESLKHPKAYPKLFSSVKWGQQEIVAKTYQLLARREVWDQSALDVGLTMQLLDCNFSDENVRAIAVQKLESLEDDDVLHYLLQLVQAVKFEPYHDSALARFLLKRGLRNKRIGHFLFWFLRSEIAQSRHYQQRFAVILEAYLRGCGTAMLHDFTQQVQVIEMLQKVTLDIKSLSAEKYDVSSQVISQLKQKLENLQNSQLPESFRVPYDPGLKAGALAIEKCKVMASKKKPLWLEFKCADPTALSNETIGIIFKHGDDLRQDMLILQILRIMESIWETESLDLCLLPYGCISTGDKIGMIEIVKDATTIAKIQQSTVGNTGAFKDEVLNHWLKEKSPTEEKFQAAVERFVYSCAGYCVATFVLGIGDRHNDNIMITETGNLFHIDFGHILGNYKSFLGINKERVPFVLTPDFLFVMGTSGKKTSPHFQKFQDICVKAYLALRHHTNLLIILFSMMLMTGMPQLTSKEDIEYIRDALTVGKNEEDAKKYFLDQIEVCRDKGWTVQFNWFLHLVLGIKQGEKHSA
Chain of PI3K β (P42338 whole entry, species assumed): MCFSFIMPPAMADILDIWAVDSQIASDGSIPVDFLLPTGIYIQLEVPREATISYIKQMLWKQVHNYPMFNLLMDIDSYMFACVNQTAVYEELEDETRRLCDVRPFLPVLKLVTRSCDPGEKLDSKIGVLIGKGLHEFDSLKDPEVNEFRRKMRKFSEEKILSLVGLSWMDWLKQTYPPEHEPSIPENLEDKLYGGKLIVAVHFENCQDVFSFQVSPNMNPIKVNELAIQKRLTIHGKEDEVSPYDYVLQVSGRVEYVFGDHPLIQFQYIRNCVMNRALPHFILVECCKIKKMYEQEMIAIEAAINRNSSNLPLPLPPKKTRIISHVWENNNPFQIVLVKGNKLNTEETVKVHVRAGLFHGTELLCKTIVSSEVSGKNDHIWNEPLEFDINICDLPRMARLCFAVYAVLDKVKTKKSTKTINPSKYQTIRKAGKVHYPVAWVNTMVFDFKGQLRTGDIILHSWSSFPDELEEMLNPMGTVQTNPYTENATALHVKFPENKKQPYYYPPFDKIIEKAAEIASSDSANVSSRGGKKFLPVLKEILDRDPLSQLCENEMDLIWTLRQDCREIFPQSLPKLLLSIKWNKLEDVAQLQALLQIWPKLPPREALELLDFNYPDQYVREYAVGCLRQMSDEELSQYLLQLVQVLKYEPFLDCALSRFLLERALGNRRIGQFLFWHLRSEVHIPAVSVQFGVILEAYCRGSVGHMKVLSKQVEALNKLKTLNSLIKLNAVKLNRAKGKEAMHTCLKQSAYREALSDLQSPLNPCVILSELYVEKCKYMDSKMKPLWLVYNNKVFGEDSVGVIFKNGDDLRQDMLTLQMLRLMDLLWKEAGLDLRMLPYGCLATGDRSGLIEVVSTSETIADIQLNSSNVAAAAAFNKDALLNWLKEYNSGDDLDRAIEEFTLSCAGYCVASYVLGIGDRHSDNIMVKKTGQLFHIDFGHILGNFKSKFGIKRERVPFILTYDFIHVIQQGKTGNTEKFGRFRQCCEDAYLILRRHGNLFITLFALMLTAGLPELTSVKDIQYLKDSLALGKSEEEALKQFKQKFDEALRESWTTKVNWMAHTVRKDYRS
Chain of PI3K β (P27986 whole entry partner, species assumed): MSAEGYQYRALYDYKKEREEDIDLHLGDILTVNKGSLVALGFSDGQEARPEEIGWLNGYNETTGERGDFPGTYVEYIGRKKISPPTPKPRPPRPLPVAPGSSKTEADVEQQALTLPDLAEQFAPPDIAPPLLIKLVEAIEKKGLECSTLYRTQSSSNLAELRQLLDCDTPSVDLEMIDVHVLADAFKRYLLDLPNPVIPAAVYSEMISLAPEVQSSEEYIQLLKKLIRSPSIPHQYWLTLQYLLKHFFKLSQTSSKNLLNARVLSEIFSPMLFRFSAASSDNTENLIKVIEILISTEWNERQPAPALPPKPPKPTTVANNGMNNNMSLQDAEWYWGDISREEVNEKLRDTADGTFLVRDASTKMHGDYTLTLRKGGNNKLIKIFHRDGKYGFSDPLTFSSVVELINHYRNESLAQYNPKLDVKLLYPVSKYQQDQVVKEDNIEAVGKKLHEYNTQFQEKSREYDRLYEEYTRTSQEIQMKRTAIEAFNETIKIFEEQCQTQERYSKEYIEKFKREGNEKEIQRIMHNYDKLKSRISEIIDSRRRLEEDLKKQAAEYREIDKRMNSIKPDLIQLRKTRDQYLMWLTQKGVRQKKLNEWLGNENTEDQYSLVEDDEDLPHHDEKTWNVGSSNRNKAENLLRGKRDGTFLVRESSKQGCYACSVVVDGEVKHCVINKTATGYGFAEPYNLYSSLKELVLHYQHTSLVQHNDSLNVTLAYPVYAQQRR
Chain of PI3K α (P42336 whole entry, species assumed): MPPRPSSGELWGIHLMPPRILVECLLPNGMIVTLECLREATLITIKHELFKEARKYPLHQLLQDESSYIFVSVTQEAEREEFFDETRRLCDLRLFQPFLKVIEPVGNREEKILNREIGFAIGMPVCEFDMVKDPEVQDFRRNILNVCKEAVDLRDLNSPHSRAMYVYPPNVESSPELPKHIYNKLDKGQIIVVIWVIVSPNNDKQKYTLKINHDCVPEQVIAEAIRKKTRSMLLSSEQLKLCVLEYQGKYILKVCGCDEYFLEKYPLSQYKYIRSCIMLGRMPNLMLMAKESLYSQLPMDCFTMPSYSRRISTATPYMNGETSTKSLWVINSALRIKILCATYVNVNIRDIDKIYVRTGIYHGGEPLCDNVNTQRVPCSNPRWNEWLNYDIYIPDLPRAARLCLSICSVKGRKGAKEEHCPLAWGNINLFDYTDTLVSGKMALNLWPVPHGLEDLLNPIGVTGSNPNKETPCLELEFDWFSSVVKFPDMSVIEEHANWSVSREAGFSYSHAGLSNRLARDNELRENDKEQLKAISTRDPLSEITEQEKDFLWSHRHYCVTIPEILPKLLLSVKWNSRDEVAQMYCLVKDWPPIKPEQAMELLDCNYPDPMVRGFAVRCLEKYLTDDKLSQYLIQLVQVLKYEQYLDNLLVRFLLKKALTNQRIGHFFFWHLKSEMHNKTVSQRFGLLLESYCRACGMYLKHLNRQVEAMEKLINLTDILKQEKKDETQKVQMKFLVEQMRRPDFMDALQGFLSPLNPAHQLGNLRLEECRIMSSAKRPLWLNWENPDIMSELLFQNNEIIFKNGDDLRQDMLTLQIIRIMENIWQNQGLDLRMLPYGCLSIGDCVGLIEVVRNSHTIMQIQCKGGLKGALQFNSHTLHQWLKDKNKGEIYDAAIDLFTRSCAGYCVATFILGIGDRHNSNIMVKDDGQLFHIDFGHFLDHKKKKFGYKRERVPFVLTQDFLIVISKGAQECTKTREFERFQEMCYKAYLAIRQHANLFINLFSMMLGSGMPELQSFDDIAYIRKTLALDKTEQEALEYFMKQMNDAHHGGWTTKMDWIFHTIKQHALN
Chain of PI3K α (P27986 whole entry partner, species assumed): as the sequence (P27986 whole entry partner, species assumed) above
Chain of PI3K δ (O00329 whole entry, species assumed): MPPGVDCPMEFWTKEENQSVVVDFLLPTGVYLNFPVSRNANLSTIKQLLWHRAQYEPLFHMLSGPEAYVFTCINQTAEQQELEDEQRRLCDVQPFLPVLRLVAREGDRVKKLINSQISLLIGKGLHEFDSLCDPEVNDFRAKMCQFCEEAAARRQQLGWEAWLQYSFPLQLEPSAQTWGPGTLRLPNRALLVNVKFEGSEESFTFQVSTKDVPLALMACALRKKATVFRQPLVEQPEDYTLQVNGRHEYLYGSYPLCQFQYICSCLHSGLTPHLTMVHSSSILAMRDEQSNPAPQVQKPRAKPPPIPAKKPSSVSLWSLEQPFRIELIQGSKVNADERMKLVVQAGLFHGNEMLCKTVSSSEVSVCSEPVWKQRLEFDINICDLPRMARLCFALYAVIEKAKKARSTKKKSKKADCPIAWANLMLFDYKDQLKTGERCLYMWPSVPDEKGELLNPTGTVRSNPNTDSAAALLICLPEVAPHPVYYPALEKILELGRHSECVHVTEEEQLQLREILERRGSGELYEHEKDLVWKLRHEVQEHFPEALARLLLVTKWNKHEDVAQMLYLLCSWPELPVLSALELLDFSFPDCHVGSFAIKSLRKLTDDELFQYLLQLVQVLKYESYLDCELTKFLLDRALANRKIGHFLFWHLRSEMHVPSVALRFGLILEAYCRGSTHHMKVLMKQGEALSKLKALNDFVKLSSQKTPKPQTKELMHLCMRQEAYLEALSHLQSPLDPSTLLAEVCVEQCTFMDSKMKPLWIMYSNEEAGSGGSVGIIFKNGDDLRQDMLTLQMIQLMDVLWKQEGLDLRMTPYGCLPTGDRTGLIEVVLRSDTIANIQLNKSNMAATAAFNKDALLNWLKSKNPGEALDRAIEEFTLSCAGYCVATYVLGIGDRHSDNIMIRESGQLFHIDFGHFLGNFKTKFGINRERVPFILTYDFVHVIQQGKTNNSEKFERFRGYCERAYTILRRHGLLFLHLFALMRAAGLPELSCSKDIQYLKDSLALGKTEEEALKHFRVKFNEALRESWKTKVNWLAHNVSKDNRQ
Chain of PI3K δ (P27986 whole entry partner, species assumed): as the sequence (P27986 whole entry partner, species assumed) above

In the case of `COc1cccc2cc(-c3nn(C4CCN(C(=O)C5CC5)CC4)c4ncnc(N)c34)[nH]c12` [Compound 66], the pIC50 in test [1] (Table 2) was less than 6.30; in test [2] (Table 2, read-out: mTORC IC50), less than 6.30; in test [3] (Table 2) it was less than 6.30; in test [4] (Table 2) it was less than 6.30; in test [5] (Table 2), less than 6.30.

Turning to `CC(C)n1nc(-c2cc3cccc(Cl)c3[nH]2)c2c(N)ncnc21` [Compound 50], the pIC50 is less than 6.30 in test [1] (Table 2); 7.30 to 7.60 in test [2] (Table 2, read-out: mTORC IC50); less than 6.30 in test [3] (Table 2); 6.30 to 7.00 in test [4] (Table 2); 6.30 to 7.00 in test [5] (Table 2).

Regarding `COc1cc(Cl)c2[nH]c(-c3nn(C4CCOCC4)c4ncnc(N)c34)cc2c1` [Compound 67], the pIC50 in test [1] (Table 2) was less than 6.30; in test [2] (Table 2, read-out: mTORC IC50) it was less than 6.30; in test [3] (Table 2), less than 6.30; in test [4] (Table 2), less than 6.30; in test [5] (Table 2), less than 6.30.

For `COc1cccc2cc(-c3nn(C4CCOCC4)c4ncnc(N)c34)[nH]c12` [Compound 63], the pIC50 in test [1] (Table 2) is less than 6.30; in test [2] (Table 2, read-out: mTORC IC50), greater than 8.30; in test [3] (Table 2) it was 6.30 to 7.00; in test [4] (Table 2), 7.60 to 8.00; in test [5] (Table 2), 7.60 to 8.00.

On to `Nc1ncnc2c1c(-c1cc3cccc(Cl)c3[nH]1)nn2C1CCOCC1` [Compound 51], for which the pIC50 in test [1] (Table 2) was less than 6.30; in test [2] (Table 2, read-out: mTORC IC50), 7.30 to 7.60; in test [3] (Table 2), less than 6.30; in test [4] (Table 2) it was 6.30 to 7.00; in test [5] (Table 2) it was 6.30 to 7.00.

Consider `CC(C)(CO)n1nc(-c2ccc3oc(N)nc3c2)c2c(N)ncnc21` [Compound 27], for which the pIC50 is less than 5.00 in test [1] (Table 1), greater than 5.00 in test [3] (Table 1), greater than 6.00 in test [4] (Table 1) and less than 5.00 in test [5] (Table 1).

Consider `CC(CO)n1nc(-c2ccc3oc(N)nc3c2)c2c(N)ncnc21` (centres unmarked) [Compound 23], for which the pIC50 in test [1] (Table 1) was less than 5.00; in test [2] (Table 1, read-out: mTOR IC50), greater than 7.00; in test [3] (Table 1) it was greater than 5.00; in test [4] (Table 1) it was greater than 5.00; in test [5] (Table 1), greater than 5.00.

Regarding `CC(C)n1nc(-c2cc3ccc(C#N)cc3[nH]2)c2c(N)ncnc21` [Compound 24], the pIC50 in test [2] (Table 2, read-out: mTORC IC50) is less than 6.30; in test [3] (Table 2), less than 6.30; in test [6], less than 6.30.

Regarding `CN1CCN(C2CC(n3nc(-c4cc5cc(O)ccc5[nH]4)c4c(N)ncnc43)C2)CC1` (centres unmarked) [Compound 52], the pIC50 is less than 6.30 in test [1] (Table 2); 6.30 to 7.00 in test [2] (Table 2, read-out: mTORC IC50); less than 6.30 in test [3] (Table 2); 6.30 to 7.00 in test [4] (Table 2); less than 6.30 in test [5] (Table 2).

For the compound `CC(=O)Nc1noc2cc(-c3nn(C(C)C)c4ncnc(N)c34)ccc12` [Compound 11], in test [2] (Table 1, read-out: mTOR IC50), the pIC50 is greater than 6.00. For the same compound, the pEC50 in test [6] was less than 5.00.

Take `CC(C)n1nc(-c2ccc3onc(N)c3c2)c2c(N)ncnc21` [Compound 10]: the pIC50 in test [2] (Table 1, read-out: mTOR IC50) is greater than 5.00. In addition, the pEC50 in test [6] is less than 5.00.

Regarding `CC(C)n1nc(-c2cc3ccc(O)cc3[nH]2)c2c(N)ncnc21` [Compound 21], the pIC50 is less than 6.30 in test [1] (Table 2); 7.30 to 7.60 in test [2] (Table 2, read-out: mTORC IC50); 6.30 to 7.00 in test [3] (Table 2); 6.30 to 7.00 in test [4] (Table 2); 6.30 to 7.00 in test [5] (Table 2).

Turning to `CC(=O)N1CCC(n2nc(-c3cc4ccc(O)cc4[nH]3)c3c(N)ncnc32)CC1` [Compound 65], the pIC50 in test [1] (Table 2) is less than 6.30; in test [2] (Table 2, read-out: mTORC IC50), 8.00 to 8.30; in test [3] (Table 2), 7.30 to 7.60; in test [4] (Table 2) it was 7.60 to 8.00; in test [5] (Table 2), 7.60 to 8.00.

Consider `Nc1ncnc2c1c(-c1cc3cc(O)ccc3[nH]1)nn2C1CC(N2CCOCC2)C1` (centres unmarked) [Compound 49], for which the pIC50 in test [1] (Table 2) was less than 6.30; in test [2] (Table 2, read-out: mTORC IC50) it was 8.00 to 8.30; in test [3] (Table 2), less than 6.30; in test [4] (Table 2), 6.30 to 7.00; in test [5] (Table 2), 6.30 to 7.00.

Take `Nc1ncnc2c1c(-c1cc3cccc(O)c3[nH]1)nn2C1CCOCC1` [Compound 62]: the pIC50 in test [1] (Table 2) is less than 6.30; in test [2] (Table 2, read-out: mTORC IC50), greater than 8.30; in test [3] (Table 2), less than 6.30; in test [4] (Table 2), 7.00 to 7.30; in test [5] (Table 2) it was less than 6.30.

On to `Nc1ncnc2c1c(-c1cc3c(Cl)cccc3[nH]1)nn2C1CCOCC1` [Compound 48], for which the negative logarithm of the IC50 (pIC50) in test [1] (Table 2) is less than 6.30; in test [2] (Table 2, read-out: mTORC IC50) it was 7.30 to 7.60; in test [3] (Table 2) it was less than 6.30; in test [4] (Table 2), less than 6.30; in test [5] (Table 2) it was less than 6.30.

Turning to `CC(=O)N1CCC(n2nc(-c3cc4c(Cl)ccc(O)c4[nH]3)c3c(N)ncnc32)CC1` [Compound 69], the pIC50 in test [1] (Table 2) is less than 6.30; in test [2] (Table 2, read-out: mTORC IC50) it was greater than 8.30; in test [3] (Table 2) it was less than 6.30; in test [4] (Table 2), 6.30 to 7.00; in test [5] (Table 2), less than 6.30.

Take `CC(=O)N1CCC(n2nc(-c3cc4cc(O)cc(Cl)c4[nH]3)c3c(N)ncnc32)CC1` [Compound 70]: the pIC50 in test [1] (Table 2) was less than 6.30; in test [2] (Table 2, read-out: mTORC IC50), greater than 8.30; in test [3] (Table 2), 6.30 to 7.00; in test [4] (Table 2) it was 7.60 to 8.00; in test [5] (Table 2), 7.00 to 7.30.

As to `Cc1nc(N)c2c(-c3ccc4oc(N)nc4c3)nn(C(C)C)c2n1` [Compound 21], the pIC50 is less than 5.00 in test [1] (Table 1); greater than 6.00 in test [2] (Table 1, read-out: mTOR IC50); less than 5.00 in test [3] (Table 1); less than 5.00 in test [4] (Table 1); less than 5.00 in test [5] (Table 1).

As to `Nc1ncnc2c1c(-c1cc3cccc(O)c3[nH]1)nn2C1CCN(C(=O)C2CC2)CC1` [Compound 41], the pIC50 in test [1] (Table 2) was less than 6.30; in test [2] (Table 2, read-out: mTORC IC50), 8.00 to 8.30; in test [3] (Table 2) it was less than 6.30; in test [4] (Table 2) it was less than 6.30; in test [5] (Table 2) it was 7.30 to 7.60.

Consider `CC(C)N1CCC(n2nc(-c3cc4c(Cl)ccc(O)c4[nH]3)c3c(N)ncnc32)CC1` [Compound 71], for which the pIC50 in test [1] (Table 2) was less than 6.30; in test [2] (Table 2, read-out: mTORC IC50) it was 7.00 to 7.30; in test [3] (Table 2), less than 6.30; in test [4] (Table 2), less than 6.30; in test [5] (Table 2), less than 6.30.

With `COc1ccc(Cl)c2cc(-c3nn(C4CCOCC4)c4ncnc(N)c34)[nH]c12` [Compound 61], the pIC50 was less than 6.30 in test [1] (Table 2); 7.60 to 8.00 in test [2] (Table 2, read-out: mTORC IC50); less than 6.30 in test [3] (Table 2); less than 6.30 in test [4] (Table 2); less than 6.30 in test [5] (Table 2).

Consider `Nc1nc2cc(-c3nn(C4CC(=O)C4)c4ncnc(N)c34)ccc2o1` [Compound 25], for which the pIC50 in test [1] (Table 1) is greater than 5.00; in test [3] (Table 1), greater than 6.00; in test [4] (Table 1), greater than 6.00; in test [5] (Table 1), greater than 7.00.

On to `Nc1ncnc2c1c(-c1cc3cc(O)ccc3[nH]1)nn2C1CCC1` [Compound 27], for which the negative logarithm of the IC50 (pIC50) was 7.60 to 8.00 in test [2] (Table 2, read-out: mTORC IC50) and 6.30 to 7.00 in test [6].

As for `CC(C)n1nc(-c2ccc3c(N)noc3c2)c2c(N)ncnc21` [Compound 12], in test [2] (Table 1, read-out: mTOR IC50), the pIC50 is greater than 6.00. This compound showed a pEC50 in test [6] of less than 5.00.

Turning to `CC(C)n1nc(-c2cc3ccc(C(N)=O)cc3[nH]2)c2c(N)ncnc21` [Compound 25], the pIC50 was 6.30 to 7.00 in test [2] (Table 2, read-out: mTORC IC50); less than 6.30 in test [3] (Table 2); less than 6.30 in test [6].

Take `Nc1ncnc2c1c(-c1cc3cc(O)cc(Cl)c3[nH]1)nn2C1CCOCC1` [Compound 68]: the pIC50 in test [1] (Table 2) is less than 6.30; in test [2] (Table 2, read-out: mTORC IC50), greater than 8.30; in test [3] (Table 2) it was 6.30 to 7.00; in test [4] (Table 2), 7.60 to 8.00; in test [5] (Table 2), 7.30 to 7.60.

As for `CC(C)N1CCC(n2nc(-c3cc4cccc(O)c4[nH]3)c3c(N)ncnc32)CC1` [Compound 64], the pIC50 in test [1] (Table 2) is less than 6.30; in test [2] (Table 2, read-out: mTORC IC50) it was 7.60 to 8.00; in test [3] (Table 2) it was less than 6.30; in test [4] (Table 2), 6.30 to 7.00; in test [5] (Table 2), 6.30 to 7.00.

The term pIC50 denotes the IC50 on a negative log10 scale, so that one unit is a factor of ten. What is called pEC50 is −log10 of the EC50, conventionally taken in molar units. A low value points to a large EC50.
